Tests used:
[1] = target: Protein kinase C from pig brain; assay: Determination of the inhibitory action on protein kinase C; type: biochemical; conditions: method of Fabbro et al., read-out: IC50, inhibition of protein kinase C
Procedure: Protein kinase C from pig brain is used to determine the inhibitory action on protein kinase C. The inhibitory action of the compounds of formula I on protein kinase C is determined by the method of D. Fabbro et al, as described in Example 2. […] 0.1 to 30 μmol/liter.
Protein kinase C from pig brain purified in accordance with the procedure described by T. Uchida and C. R. Filbum in J. Biol. Chem. 259, 12311-4 (1984) is used to determine the inhibitory action on protein kinase C. The inhibitory action of the compounds of formula I on protein kinase C is determined by the method of D. Fabro et al., Arch. Biochem. Biophys. 239, 102-111 (1985). The following IC50 values are obtained in this assay for the compounds of formula I: […]

[2] = tested on: Human T24 bladder carcinoma cells; assay: Inhibition of the growth of human T24 bladder carcinoma cells; type: cell-based; conditions: 120 h, 5 days incubation, methylene blue staining, OD 665 nm
Procedure: In this assay, the inhibitory action of compounds of formula I on the growth of human T24 bladder carcinoma cells is determined. The IC50 values obtained for the compounds of formula I are from c. 1 to 10 μmol/liter.
Human T24 bladder carcinoma cells are incubated in "Eagle's minimal essential medium", to which 5% (v/v) foetal calf serum has been added, in a humidified incubator at 37° C. and 5 percent by volume CO2 in air. The carcinoma cells (1000-1500) are inoculated in 96-well microtitre plates and incubated overnight under the stated conditions. The test compound is added in serial dilutions on day 1. The plates are incubated for 5 days under the stated conditions. During this time the control cultures undergo at least 4 cell divisions. After incubation, the cells are fixed with a 3.3% (g/v) aqueous solution of glutaraldehyde, washed with water and stained with a 0.05% (weight/volume) aqueous solution of methylene blue. After washing, the stain is eluted with 3% (g/v) aqueous hydrochloric acid. Afterwards, the optical density (OD) per well, which is directly proportional to the number of cells, is measured with a photometer (Titertek multiskan) at 665 nm. The IC50 values are computed by a computer system, using the formula [formula] The IC50 values are defined as that active compound concentration at which the number of cells per well at the end of the incubation period is only 50% of the number of cells in the control cultures. The following IC50 values are obtained in this assay for the compounds of formula I: […]

[3] = tested on: human T24 bladder carcinoma; assay: Antitumour activity in mice (T24 bladder carcinoma transplant); type: in vivo, female Balb/c nude mice; conditions: once daily for 15 days, measured 24 hours after last administration
Procedure: In the assay described in Example 3, the compounds of formula I, when administered perorally or intraperitoneally, reduce tumour volume to about 35-70% of tumour volume in control animals treated with placebo.
On day 0 a c. 25 mg piece of human T24 bladder carcinoma is transplanted subcutaneously using Trokar under operable "forene" narcosis on female Balb/c nude mice (Balb/c(Balb/c nu/nu, Bomholdgaard, Denmark; six mice per group). On day 6 after the tumour transplantation the average tumour volume is 120-140 mm^3 and treatment is commenced. The treatment consists in administering perorally or intraperitoneally once daily over 15 successive days, i.e. altogether 15 times, 25 ml/kg of the following formulation. This formulation is prepared as follows: 16 mg of a compound of formula I are dissolved in 0.4 ml of dimethyl sulfoxide (100% ). Then 0.05 ml of Tween 80 is added to this solution and the batch is mixed. Then 7.6 ml of a 0.9% aqueous solution of sodium chloride are added and the batch is thoroughly mixed. This formulation is prepared fresh daily. The control animals receive a placebo. The placebo is the same formulation without compound of formula I.
24 hours after the last administration, the tumour volume is measured and the ratio [%] of the tumour volume T/C is determined in the treated animals (T) and the control animals treated with placebo (C).

SMILES	IC50 [1] [µM]	IC50 [2] [µM]	ratio T/C of tumour volume ([3]; intraperitoneal, 25 mg) [%]	ratio T/C of tumour volume ([3]; intraperitoneal, 50 mg) [%]	ratio T/C of tumour volume ([3]; peroral, 25 mg) [%]	ratio T/C of tumour volume ([3]; peroral, 50 mg) [%]
c1cncc(-c2ccnc(Nc3cccc(-n4ccnc4)c3)n2)c1 [compound A, N-(3-1H-imidazol-1-ylphenyl)-4-(3-pyridyl)-2-pyrimidinamine]	8.8	2.5	–	–	–	–
Clc1cccc(Nc2nccc(-c3cccnc3)n2)c1 [compound C, N-(3-chlorophenyl)-4-(3-pyridyl)-2-pyrimidinamine]	6.3	5.2	–	–	–	–
FC(F)(F)c1cccc(Nc2nccc(-c3cccnc3)n2)c1 [compound B, N-(3-trifluoromethylphenyl)-4-(3-pyridyl)-2-pyrimidinamine]	2.5	7.4	54	46	68	53

The next lines start with results.

IC50 [1] [µM]	IC50 [2] [µM]	SMILES	ratio T/C of tumour volume ([3]; intraperitoneal, 25 mg) [%]	ratio T/C of tumour volume ([3]; intraperitoneal, 50 mg) [%]	ratio T/C of tumour volume ([3]; peroral, 25 mg) [%]	ratio T/C of tumour volume ([3]; peroral, 50 mg) [%]
28	7.2	Nc1cccc(Nc2nccc(-c3cccnc3)n2)c1 [compound D, N-(3-aminophenyl)-4-(3-pyridyl)-2-pyrimidinamine]	–	–	–	–
26	–	COC(=O)c1cccc(Nc2nccc(-c3cccnc3)n2)c1 [compound E, N-(3-methoxycarbonylphenyl)-4-(3-pyridyl)-2-pyrimidinamine]	–	–	–	–
28	–	NCCCNC(=O)c1cccc(Nc2nccc(-c3cccnc3)n2)c1 [compound F, N-(3-[3-aminopropylaminocarbonyl]phenyl)-4-(3-pyridyl)-2-pyrimidinamine]	–	–	–	–

From US5516775A, “Further use of pyrimidine derivatives” (Ciba-Geigy Corporation, priority 1992, dated 1996)
